According to ChEMBL document CHEMBL1201862, “PubChem BioAssay data set” (2004):
Activity calls are given as the source filed them.

Columns and labels:
[1] = M. tuberculosis H37Rv growth inhibitors, H37Rv strain (AID 1626); assay type: functional
Estrogen receptor beta [2] = molecular target: T1, Estrogen receptor beta (Homo sapiens, UniProt Q92731); test: blockers of SRC-3 recruitment to ERβ – biochemical, ELISA, streptavidin-HRP readout, orthogonal assay, confirmation (AID 1060)
Estrogen receptor = molecular target: T2, Estrogen receptor (Homo sapiens, UniProt P03372);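 further: potency for inhibiting coactivator peptide recruitment to the receptor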
T2 sequence (P03372 whole entry): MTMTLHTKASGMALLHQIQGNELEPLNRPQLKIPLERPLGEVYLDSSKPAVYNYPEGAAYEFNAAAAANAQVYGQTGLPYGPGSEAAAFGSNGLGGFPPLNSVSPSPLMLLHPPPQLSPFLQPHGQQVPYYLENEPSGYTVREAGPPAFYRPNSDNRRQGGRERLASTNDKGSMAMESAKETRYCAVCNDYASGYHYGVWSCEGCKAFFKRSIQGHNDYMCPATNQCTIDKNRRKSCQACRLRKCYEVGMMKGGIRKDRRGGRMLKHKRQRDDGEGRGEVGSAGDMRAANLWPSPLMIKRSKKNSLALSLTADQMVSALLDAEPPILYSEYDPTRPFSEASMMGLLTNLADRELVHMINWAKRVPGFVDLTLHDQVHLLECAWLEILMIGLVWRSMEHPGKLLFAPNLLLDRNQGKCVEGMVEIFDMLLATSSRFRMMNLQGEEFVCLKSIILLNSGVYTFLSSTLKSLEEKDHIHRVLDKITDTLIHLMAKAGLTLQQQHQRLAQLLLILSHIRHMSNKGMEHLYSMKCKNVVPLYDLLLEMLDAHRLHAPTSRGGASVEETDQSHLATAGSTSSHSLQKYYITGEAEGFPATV

Estrogen receptor beta [3] = molecular target: T1, Estrogen receptor beta
Streptococcus = test: GAS UMAA2166 growth inhibition – luminescence, BacTiterGlo, counter-screen for streptokinase expression inhibitor project, dose response (AID 1915); assay type: functional, organism-based;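 further: potency for reduction of bacterial viability or growth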
[4] = test system: Streptococcus sp. 'group A'; test: Streptococcus pyogenes SK(-)GAS viability under kanamycin – luminescence, BacTiterGlo, confirmation, counter-screen for streptokinase expression inhibitor project, dose response (AID 1900); assay type: functional, organism-based
[5] = molecular target: Eukaryotic translation initiation factor 4E (Mus musculus, UniProt P63073); test: blockers of eIF4G binding by eIF4E – biochemical, TR-FRET, dose response (AID 855); assay type: functional;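 further: potency for disrupting eIF4E binding to eIF4GI seen as loss of FRET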
[6] = molecular target: Induced myeloid leukemia cell differentiation protein Mcl-1 (Homo sapiens, UniProt Q07820); assay type: functional
[7] = molecular target: DNA (cytosine-5)-methyltransferase 1 (Homo sapiens, UniProt P26358); test: inhibition of DNA methylation by DNMT1 – biochemical, fluorescent molecular beacon, confirmation (AID 602386); assay type: functional
HEK293 [8] = test: cells; assay type: functional, cell-based; details: Homo sapiens
HEK293 [9] = test: NOD2 signaling inhibitors in MDP-stimulated cells, cell-based, uHTS, luminescence (AID 2001); assay type: functional; details: Homo sapiens
HEK293 [10] = test: cells; assay type: functional, cell-based; details: Homo sapiens; remark: listed apart in the source
HEK293 [11] = test: cells; assay type: functional, cell-based; details: Homo sapiens; remark: listed apart in the source
HEK293 [12] = test: inhibition of NOD1-driven NF-kB reporter – cell-based, luminescence, uHTS, primary screen (AID 1578); assay type: functional; details: Homo sapiens
[13] = molecular target: Nucleotide-binding oligomerization domain-containing protein 2 (Homo sapiens, UniProt Q9HC29); test: inhibition of NOD2-driven NF-kB reporter – cell-based, luminescence, uHTS, HEK293 (AID 1566); assay type: functional
[14] = molecular target: T3, Corticotropin-releasing factor receptor 2/Corticotropin-releasing factor-binding protein (Homo sapiens, UniProt P24387+Q13324); test: Dose Response confirmation of uHTS hits for small molecule antagonists of the CRF-binding protein and CRF-R2 receptor complex.; assay type: functional; details: read-out: IC50_Mean
T3 sequence (Q13324 whole entry): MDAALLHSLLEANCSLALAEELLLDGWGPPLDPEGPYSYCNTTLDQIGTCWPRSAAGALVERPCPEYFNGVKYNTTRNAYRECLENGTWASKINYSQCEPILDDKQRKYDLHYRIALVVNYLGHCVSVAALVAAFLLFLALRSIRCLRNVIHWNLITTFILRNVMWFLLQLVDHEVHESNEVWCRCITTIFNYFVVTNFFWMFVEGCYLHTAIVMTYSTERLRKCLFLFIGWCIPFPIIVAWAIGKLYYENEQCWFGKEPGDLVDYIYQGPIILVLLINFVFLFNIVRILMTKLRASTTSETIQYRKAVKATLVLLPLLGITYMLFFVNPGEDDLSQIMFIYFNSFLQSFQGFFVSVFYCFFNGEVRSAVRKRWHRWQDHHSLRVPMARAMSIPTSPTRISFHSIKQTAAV
T3 sequence (P24387 whole entry): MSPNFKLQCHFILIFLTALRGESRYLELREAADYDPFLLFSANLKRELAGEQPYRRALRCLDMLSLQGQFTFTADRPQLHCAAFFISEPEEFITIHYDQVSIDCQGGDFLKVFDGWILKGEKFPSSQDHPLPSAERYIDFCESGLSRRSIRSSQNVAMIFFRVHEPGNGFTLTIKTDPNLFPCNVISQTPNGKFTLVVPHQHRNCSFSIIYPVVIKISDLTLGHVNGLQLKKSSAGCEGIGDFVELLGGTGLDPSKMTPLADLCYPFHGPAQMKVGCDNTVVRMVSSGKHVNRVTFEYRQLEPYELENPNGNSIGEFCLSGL

[15] = molecular target: T3, Corticotropin-releasing factor receptor 2/Corticotropin-releasing factor-binding protein; test: activators of CRF receptor 2 with binding protein – uHTS hits, confirmation (AID 602473); assay type: functional; details: read-out: EC50_Mean
[16] = A Cell Based Secondary Assay To Explore Cytotoxicity of Compounds that Sensitize Mycobacterium Tuberculosis to Beta-Lactam Antibiotics.; assay type: functional
[17] = molecular target: G-protein coupled receptor 55 (Homo sapiens, UniProt Q9Y2T6); test: selective activators of receptor GPR55 – imaging, U2OS cells, beta-arrestin-GFP redistribution, primary screen (AID 1961); assay type: functional
Cytochrome P450 2C9 = Cytochrome P450 2C9 (Homo sapiens, UniProt P11712)
[18] = molecular target: T4, Mannose-6-phosphate isomerase (Homo sapiens, UniProt P34949); test: MPI inhibition at elevated mannose 6-phosphate – biochemical, fluorescence intensity, high mannose 6-phosphate, primary screen (AID 1220)
T4 sequence (P34949 whole entry): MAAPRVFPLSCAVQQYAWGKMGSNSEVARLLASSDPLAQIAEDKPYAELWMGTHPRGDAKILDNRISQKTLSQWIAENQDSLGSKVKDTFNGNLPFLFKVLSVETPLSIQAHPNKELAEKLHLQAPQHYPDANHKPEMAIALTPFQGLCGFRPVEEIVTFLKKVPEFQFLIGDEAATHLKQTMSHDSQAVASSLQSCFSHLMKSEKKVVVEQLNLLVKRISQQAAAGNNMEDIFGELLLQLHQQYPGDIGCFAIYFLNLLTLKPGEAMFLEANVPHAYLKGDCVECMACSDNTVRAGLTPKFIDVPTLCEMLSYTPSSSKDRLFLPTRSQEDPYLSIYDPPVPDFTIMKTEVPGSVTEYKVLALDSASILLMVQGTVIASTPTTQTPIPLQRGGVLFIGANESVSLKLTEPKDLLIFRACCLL

[19] = NIH3T3 cell viability loss – ATP luminescence, mouse fibroblasts, counter-screen, dose response (AID 2010); assay type: functional, cell-based;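 further: cells exposed to compound for about 90 hours before reading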
Protein RecA = molecular target: T5, Protein RecA (Mycobacterium tuberculosis, UniProt P9WHJ3); test: Fluorescence Cell-Free Homogeneous Dose Retest to Identify Inhibitors of RecA-Intein Splicing Activity. [Related pubchem assays (depositor defined):AID2097, AID2223, AID489010, AID492950]; assay type: functional
T5 sequence (P9WHJ3 whole entry): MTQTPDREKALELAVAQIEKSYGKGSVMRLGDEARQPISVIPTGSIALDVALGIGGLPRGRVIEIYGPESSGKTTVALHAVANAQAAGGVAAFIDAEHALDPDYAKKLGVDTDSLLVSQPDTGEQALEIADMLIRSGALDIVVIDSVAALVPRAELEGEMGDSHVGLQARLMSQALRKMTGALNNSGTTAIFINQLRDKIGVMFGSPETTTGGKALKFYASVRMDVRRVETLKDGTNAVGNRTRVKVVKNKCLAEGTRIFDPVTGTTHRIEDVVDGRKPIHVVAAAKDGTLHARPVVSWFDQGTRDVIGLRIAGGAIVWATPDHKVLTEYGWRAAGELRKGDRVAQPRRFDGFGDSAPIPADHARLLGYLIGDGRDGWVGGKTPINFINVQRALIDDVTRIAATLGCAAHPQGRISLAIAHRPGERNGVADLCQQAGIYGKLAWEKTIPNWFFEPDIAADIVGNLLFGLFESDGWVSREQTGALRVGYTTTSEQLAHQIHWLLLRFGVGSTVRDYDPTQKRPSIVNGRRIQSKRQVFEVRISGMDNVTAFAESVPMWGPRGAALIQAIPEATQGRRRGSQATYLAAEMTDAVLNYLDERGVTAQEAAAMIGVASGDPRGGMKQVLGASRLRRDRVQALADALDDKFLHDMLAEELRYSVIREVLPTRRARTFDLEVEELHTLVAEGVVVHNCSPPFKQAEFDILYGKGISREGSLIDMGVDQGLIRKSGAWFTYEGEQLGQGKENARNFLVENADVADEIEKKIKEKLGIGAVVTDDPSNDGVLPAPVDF

[20] = Trypanosoma cruzi growth suppression in host cells – NIH3T3 host cells, beta-gal luminescence, confirmation (AID 2044); assay type: functional, cell-based;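 further: intracellular parasites grown in NIH/3T3 mouse fibroblasts as host cells; luminescent beta-galactosidase reporter signal from transgenic T. cruzi replicating inside host cells; inhibitors lower the luminescence signal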
[21] = molecular target: T6, Replicative DNA helicase DnaB (Mycobacterium tuberculosis, UniProt P9WMR3); test: DnaB intein splicing inhibitors, dose response, biochemical, cell-free fluorescence (AID 449749); assay type: functional
T6 sequence (P9WMR3 whole entry): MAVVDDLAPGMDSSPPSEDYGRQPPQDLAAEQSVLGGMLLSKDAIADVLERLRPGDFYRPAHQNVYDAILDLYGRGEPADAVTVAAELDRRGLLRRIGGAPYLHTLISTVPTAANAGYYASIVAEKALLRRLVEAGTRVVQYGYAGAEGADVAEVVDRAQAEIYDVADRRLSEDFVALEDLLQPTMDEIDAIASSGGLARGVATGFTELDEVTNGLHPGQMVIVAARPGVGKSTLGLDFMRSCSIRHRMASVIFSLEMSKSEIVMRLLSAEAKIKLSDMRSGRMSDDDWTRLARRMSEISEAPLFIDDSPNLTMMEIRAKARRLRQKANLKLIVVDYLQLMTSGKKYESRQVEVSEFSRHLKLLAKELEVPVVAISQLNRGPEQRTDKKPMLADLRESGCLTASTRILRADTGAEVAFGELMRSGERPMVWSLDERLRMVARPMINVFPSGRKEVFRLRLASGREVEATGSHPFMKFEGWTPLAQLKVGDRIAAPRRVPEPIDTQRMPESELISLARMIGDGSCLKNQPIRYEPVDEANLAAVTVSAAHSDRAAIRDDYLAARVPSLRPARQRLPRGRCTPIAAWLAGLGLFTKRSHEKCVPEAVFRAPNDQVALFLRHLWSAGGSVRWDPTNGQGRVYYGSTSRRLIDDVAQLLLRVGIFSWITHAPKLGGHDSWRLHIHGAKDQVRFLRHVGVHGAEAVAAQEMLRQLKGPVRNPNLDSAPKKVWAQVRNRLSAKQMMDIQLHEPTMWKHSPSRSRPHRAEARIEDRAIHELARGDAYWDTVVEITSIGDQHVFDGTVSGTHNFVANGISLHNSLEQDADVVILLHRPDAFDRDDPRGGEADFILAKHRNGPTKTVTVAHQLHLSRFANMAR

[22] = viability loss in THP-1 monocytes – THP-1 cells, cytotoxicity control for Vif-APOBEC3G degradation inhibitor project, dose response (AID 1117359); assay type: functional; details: THP-1

Chain of G-protein coupled receptor 55 (Q9Y2T6 whole entry): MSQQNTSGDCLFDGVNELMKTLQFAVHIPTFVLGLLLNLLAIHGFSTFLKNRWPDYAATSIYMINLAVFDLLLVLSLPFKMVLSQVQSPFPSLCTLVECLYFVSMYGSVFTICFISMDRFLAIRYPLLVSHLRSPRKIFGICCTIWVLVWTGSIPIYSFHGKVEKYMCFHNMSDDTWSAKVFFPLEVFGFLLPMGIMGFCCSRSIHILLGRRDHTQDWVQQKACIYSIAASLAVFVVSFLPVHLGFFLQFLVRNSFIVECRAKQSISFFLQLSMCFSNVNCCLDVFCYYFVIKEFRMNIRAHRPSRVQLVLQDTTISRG
T1 sequence (Q92731 whole entry): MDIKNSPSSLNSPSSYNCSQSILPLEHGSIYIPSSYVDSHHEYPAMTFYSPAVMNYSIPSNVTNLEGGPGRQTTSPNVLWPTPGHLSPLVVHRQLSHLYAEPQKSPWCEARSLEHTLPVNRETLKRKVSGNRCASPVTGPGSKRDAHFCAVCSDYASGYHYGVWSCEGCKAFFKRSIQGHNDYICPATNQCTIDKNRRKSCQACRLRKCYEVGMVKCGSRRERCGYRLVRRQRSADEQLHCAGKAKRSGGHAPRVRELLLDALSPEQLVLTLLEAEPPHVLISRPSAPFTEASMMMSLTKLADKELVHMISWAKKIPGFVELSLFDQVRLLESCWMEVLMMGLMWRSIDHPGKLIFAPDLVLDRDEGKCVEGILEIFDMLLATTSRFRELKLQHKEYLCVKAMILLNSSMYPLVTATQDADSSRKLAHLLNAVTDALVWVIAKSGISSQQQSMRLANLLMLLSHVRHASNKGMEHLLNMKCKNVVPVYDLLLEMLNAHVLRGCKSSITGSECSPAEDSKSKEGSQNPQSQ
Chain of DNA (cytosine-5)-methyltransferase 1 (P26358 whole entry): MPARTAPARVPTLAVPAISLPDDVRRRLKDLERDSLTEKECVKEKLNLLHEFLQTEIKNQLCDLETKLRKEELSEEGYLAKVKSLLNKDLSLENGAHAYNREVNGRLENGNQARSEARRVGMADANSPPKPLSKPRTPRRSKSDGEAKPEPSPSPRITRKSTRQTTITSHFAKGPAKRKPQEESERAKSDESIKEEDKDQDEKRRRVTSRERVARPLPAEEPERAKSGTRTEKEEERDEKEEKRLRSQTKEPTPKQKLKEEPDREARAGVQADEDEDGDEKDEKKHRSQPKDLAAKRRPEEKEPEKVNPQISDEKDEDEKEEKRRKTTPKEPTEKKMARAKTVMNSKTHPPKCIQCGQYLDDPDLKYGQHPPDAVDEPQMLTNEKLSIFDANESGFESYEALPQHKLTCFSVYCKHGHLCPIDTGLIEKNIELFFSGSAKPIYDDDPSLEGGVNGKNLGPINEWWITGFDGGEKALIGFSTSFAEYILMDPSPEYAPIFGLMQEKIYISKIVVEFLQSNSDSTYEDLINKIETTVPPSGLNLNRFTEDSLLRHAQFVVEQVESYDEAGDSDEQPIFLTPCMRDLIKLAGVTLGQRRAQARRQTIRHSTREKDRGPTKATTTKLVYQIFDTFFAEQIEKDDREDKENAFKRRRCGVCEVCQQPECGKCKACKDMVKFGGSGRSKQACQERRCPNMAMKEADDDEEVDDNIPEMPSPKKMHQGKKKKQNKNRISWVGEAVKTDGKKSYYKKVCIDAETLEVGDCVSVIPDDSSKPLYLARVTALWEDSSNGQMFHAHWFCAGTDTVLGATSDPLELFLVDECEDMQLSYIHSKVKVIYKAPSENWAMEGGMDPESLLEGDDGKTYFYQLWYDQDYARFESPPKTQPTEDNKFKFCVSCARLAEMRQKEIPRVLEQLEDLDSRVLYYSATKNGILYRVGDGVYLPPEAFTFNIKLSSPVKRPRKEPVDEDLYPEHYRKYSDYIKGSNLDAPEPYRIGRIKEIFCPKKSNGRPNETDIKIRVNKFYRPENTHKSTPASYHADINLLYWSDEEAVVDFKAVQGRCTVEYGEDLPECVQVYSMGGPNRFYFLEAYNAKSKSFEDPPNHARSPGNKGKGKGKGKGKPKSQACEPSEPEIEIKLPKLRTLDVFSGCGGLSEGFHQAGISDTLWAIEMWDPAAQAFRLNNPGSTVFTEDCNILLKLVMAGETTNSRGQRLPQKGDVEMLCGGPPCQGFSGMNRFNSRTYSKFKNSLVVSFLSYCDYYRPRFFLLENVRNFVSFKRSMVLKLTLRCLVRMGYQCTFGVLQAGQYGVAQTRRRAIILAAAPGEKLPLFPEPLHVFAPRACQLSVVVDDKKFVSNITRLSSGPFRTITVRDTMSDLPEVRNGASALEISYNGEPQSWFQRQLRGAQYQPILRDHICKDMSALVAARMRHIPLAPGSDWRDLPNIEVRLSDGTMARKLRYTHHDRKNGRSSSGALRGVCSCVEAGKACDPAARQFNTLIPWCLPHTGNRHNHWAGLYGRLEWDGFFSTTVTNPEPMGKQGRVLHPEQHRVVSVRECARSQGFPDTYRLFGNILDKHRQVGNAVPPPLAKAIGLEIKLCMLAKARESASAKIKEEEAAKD
Chain of Eukaryotic translation initiation factor 4E (P63073 whole entry): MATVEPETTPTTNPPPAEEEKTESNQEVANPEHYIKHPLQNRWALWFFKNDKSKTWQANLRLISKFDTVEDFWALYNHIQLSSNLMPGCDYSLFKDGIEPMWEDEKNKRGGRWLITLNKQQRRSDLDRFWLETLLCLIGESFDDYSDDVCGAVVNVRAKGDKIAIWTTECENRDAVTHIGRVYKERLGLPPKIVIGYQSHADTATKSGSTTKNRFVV
Chain of Induced myeloid leukemia cell differentiation protein Mcl-1 (Q07820 whole entry): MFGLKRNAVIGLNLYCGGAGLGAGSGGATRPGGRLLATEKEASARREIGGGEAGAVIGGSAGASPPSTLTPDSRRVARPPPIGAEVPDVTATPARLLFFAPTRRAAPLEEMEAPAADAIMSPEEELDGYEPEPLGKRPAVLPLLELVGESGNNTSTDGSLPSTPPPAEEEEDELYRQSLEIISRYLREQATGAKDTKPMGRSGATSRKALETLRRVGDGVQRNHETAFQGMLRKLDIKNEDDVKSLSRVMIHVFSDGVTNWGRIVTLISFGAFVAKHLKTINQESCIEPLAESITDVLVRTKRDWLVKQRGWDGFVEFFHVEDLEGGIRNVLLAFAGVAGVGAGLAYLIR
Chain of Cytochrome P450 2C9 (P11712 whole entry): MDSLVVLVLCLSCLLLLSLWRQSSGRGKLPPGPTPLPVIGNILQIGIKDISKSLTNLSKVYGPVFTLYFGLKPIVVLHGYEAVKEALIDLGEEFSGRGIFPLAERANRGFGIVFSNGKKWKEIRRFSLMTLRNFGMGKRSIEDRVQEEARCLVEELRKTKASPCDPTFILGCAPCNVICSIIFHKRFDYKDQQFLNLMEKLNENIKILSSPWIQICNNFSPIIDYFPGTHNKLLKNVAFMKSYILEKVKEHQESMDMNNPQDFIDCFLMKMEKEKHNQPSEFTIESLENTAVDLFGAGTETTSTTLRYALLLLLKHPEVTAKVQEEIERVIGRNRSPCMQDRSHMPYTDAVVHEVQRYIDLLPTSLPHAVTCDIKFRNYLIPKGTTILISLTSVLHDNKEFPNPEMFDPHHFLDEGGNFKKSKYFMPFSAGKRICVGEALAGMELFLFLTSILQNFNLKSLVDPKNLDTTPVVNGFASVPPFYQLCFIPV
Chain of Nucleotide-binding oligomerization domain-containing protein 2 (Q9HC29 whole entry, the tested form may be a part): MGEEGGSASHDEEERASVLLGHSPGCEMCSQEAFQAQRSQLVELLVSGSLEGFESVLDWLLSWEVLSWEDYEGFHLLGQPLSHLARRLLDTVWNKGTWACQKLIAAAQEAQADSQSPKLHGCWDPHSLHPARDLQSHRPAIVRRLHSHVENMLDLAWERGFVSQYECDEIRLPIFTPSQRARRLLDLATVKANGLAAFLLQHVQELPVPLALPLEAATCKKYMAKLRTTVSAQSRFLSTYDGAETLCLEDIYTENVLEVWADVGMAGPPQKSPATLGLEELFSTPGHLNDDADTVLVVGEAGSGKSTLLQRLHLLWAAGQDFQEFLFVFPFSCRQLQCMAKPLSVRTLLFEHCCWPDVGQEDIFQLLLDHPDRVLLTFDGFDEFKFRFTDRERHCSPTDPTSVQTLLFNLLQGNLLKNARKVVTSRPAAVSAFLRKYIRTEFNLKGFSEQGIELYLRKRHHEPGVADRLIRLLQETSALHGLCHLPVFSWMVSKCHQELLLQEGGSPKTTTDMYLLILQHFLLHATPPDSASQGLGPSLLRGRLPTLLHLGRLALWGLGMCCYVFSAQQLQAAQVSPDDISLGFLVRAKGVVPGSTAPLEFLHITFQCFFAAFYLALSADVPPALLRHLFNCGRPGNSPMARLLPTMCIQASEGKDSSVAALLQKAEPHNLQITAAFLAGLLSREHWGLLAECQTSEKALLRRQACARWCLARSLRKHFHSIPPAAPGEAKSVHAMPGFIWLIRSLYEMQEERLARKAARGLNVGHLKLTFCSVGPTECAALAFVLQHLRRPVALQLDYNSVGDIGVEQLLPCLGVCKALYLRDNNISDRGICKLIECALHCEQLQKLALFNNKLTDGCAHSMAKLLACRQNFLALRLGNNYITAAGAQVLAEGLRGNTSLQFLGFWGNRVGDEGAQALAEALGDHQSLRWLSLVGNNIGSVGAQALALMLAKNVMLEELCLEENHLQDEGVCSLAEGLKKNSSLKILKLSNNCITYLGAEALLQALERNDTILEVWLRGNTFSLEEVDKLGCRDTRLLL

## Cc1ccc(NC(=O)COC(=O)CC2CCCC2)cc1Cl
[1]
  IC50: > 100 µM (active)

## C=CCn1c(SCC(=O)NC(=O)NCc2ccco2)nc2sc(CC)cc2c1=O
Estrogen receptor beta [2]
  IC50: 0.0317 µM (not active)
Estrogen receptor
  IC50: 10.1 µM (active)
Estrogen receptor beta [3]
  IC50: 13.6 µM (active)

## Cc1ccc(NC(=O)CN2C(=O)S/C(=C/c3ccc(-c4cc(C(=O)O)ccc4C)o3)C2=O)cc1C
Streptococcus
  EC50: 6.89 µM (active)
[4]
  EC50: 2.31 µM (active)
[5]
  IC50: 14.4 µM (active)
Estrogen receptor
  IC50: 18.2 µM (active)
[6]
  IC50: 2.05 µM (active)
[7]
  IC50: 11.3 µM (active)

## O=C(Nc1cccc(Br)c1)c1ccc(Cl)c(S(=O)(=O)N2CCOCC2)c1
HEK293 [8]
  IC50: 2.87 µM (active)
HEK293 [9]
  IC50: 3.44 µM (active)
HEK293 [10]
  IC50: > 20 µM (inactive)
HEK293 [11]
  IC50: 6.44 µM (active)
HEK293 [12]
  EC50: 10.3 µM (active)
[13]
  EC50: > 20 µM (inactive)

## Cc1cc2c(N=NC(=O)C3CC3c3ccccc3)c(O)[nH]c2cc1Br (stereo not drawn)
[14]
  IC50: > 47.1 µM (inactive)
[15]
  EC50: > 53 µM (inactive)
[16]
  CC50: 32.8 µM (active)

## O=C(CSc1nc2ccccc2o1)N1c2ccccc2Sc2ccc(Cl)cc21
[17]
  EC50: > 32 µM (inactive)
Cytochrome P450 2C9
  AC50: 3.16 µM (inconclusive)

## CCCCn1c(N)c(C(=O)NCc2cccs2)c2nc3ccccc3nc21
[18]
  IC50: > 50 µM (not active)
[19]
  EC50: > 60 µM (not active)
Protein RecA
  EC50: 47.4 µM (inconclusive)
[20]
  EC50: 2.83 µM (active)

## Cc1ccc(Cc2cnc(NC(=O)C3CCCO3)s2)cc1 (stereo not drawn)
[1]
  IC50: > 100 µM (active)

## CC(=O)Nc1cccc(OCc2ccc(F)cc2)c1
[1]
  IC50: > 100 µM (active)

## O=C(Oc1ccc(N2C(=O)CCC2=O)cc1)c1ccco1
Estrogen receptor
  IC50: > 50 µM (not active)
Protein RecA
  EC50: 0.388 µM (active)
[21]
  AC50: 0.351 µM (inconclusive)

## O=CN1CCN(c2ncnc3c2nnn3Cc2c(F)cccc2Cl)CC1
[17]
  EC50: 12.7 µM (inactive)

## COc1cccc(/C=N/NC(=O)c2cnccn2)c1O
[22]
  CC50: > 40 µM (active)
[16]
  CC50: > 40 µM (active)
